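Interpolation was linear, between the two tested concentrations surrounding the appropriate level; five concentrations were tested over 48 hours in 96-well plates. At the GI50, growth is halved. TGI denotes the concentration required for complete inhibition of growth.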
How the values were obtained:
Assay in all cases: NCI-60 cell line screen, 48 h
NCI/ADR-RES ovarian = test system: NCI/ADR-RES ovarian
RXF 393 renal = test system: RXF 393 renal
DU-145 prostate = test system: DU-145 prostate
MOLT-4 leukemia = test system: MOLT-4 leukemia
786-0 renal = test system: 786-0 renal
OVCAR-3 ovarian = test system: OVCAR-3 ovarian
A549 NSCLC = test system: A549 NSCLC
ACHN renal = test system: ACHN renal
TK-10 renal = test system: TK-10 renal
SF-295 CNS = test system: SF-295 CNS

Compound | GI50 (NCI/ADR-RES ovarian) | TGI (NCI/ADR-RES ovarian) | GI50 (RXF 393 renal) | TGI (RXF 393 renal) | GI50 (DU-145 prostate) | TGI (DU-145 prostate) | GI50 (MOLT-4 leukemia) | TGI (MOLT-4 leukemia) | GI50 (786-0 renal) | TGI (786-0 renal) | GI50 (OVCAR-3 ovarian) | TGI (OVCAR-3 ovarian) | GI50 (A549 NSCLC) | TGI (A549 NSCLC) | GI50 (ACHN renal) | TGI (ACHN renal) | GI50 (TK-10 renal) | TGI (TK-10 renal) | GI50 (SF-295 CNS) | TGI (SF-295 CNS)
CCCCC#CC1=C(Br)C(=O)OC1 | 2040 nM | 5.9 µM | 1890 nM | 4.57 µM | 752 nM | 2.34 µM | 319 nM | > 100 µM | 2000 nM | 5.14 µM | 453 nM | 2.27 µM | 17200 nM | 43.4 µM | 2240 nM | > 21 µM | 1800 nM | 4.53 µM | 6200 nM | 28.2 µM
CCN(CC)CCC(CNc1ccnc2cc(Cl)ccc12)c1ccc(Cl)cc1 (stereo unspecified) | 2060 nM | 8.65 µM | 1040 nM | 2.32 µM | 5440 nM | 17.7 µM | 1600 nM | 9.27 µM | 1340 nM | 2.68 µM | 1960 nM | 5.98 µM | 1640 nM | 3.96 µM | 467 nM | 1.78 µM | 436 nM | 1.63 µM | 1020 nM | 2.64 µM
CN1CCN(C2CCN(C(=O)Nc3cc(Oc4ccc(NC(=O)C5(C(=O)Nc6ccc(F)cc6)CC5)c(F)c4)ccn3)CC2)CC1 | > 8160 nM | > 10 µM | 918 nM | > 2.4 µM | 1410 nM | > 10 µM | 803 nM | > 2.7 µM | 1670 nM | > 10 µM | – | > 3.02 µM | 1380 nM | > 10 µM | 1300 nM | > 10 µM | 365 nM | > 10 µM | 470 nM | > 3.67 µM
COc1cc(C(=O)N2CCN(C=O)C2=S)cc(OC)c1OC | 36100 nM | > 100 µM | 16100 nM | 32.4 µM | 19600 nM | 56.6 µM | 29400 nM | 73.8 µM | 12700 nM | 28 µM | 16900 nM | 33.6 µM | 33200 nM | 88.8 µM | 20100 nM | 44.1 µM | 17100 nM | 36.7 µM | 29300 nM | > 100 µM
N#Cc1c(NC(=O)NCc2ccccc2)sc2c1CCCCC2 | 420 nM | 27.1 µM | 352 nM | 2.38 µM | 564 nM | 4.71 µM | 456 nM | > 100 µM | 761 nM | > 100 µM | 346 nM | 1.61 µM | 626 nM | > 100 µM | 629 nM | > 100 µM | 5920 nM | > 100 µM | 425 nM | 24 µM
NC(N)=N/N=C/c1c(-c2ccsc2)nc2sccn12 | 16900 nM | 32.7 µM | 17900 nM | 40 µM | 16400 nM | 31.4 µM | 10800 nM | 39 µM | 12000 nM | 24.3 µM | 8800 nM | 21.2 µM | 21700 nM | 43.7 µM | 16900 nM | 32 µM | 10800 nM | 22.7 µM | 11400 nM | 23.6 µM
NC(=O)/C=C/C(=O)c1c(Cl)cccc1Cl | 1770 nM | 3.44 µM | 601 nM | 1.4 µM | 1650 nM | 3.04 µM | 1180 nM | 5.46 µM | 2140 nM | – | 533 nM | 1.72 µM | 1790 nM | 3.39 µM | 323 nM | 0.853 µM | 1220 nM | 2.92 µM | 2540 nM | 7.35 µM
COc1ccc(OC)c2c1[nH]c(=O)c1c3ccccc3cn21 | 1500 nM | 3.38 µM | 1500 nM | 3.01 µM | 1510 nM | 3.03 µM | 581 nM | 2.3 µM | 1880 nM | 3.34 µM | 1640 nM | 3.31 µM | 1020 nM | 2.37 µM | 1110 nM | 2.37 µM | 2010 nM | 3.76 µM | 1250 nM | 2.7 µM
CCN1CCN(C(=O)[C@@]2(C)CC[C@]3(C)CC[C@]4(C)C(=CC(=O)[C@@H]5[C@@]6(C)CC[C@H](OC7C[C@@H](O)[C@@H](O)C(C)O7)C(C)(C)[C@@H]6CC[C@]54C)[C@@H]3C2)CC1 (stereo partly specified) | 2530 nM | 12.9 µM | 3730 nM | 11.5 µM | 8710 nM | 16.3 µM | 1180 nM | 3 µM | 933 nM | 1.82 µM | 8750 nM | 16.7 µM | 1760 nM | 8.94 µM | 910 nM | 1.69 µM | 806 nM | 1.9 µM | 934 nM | 1.83 µM
c1ccc(-c2nnc(-c3ccccn3)s2)nc1 | > 100000 nM | > 100 µM | > 100000 nM | > 100 µM | > 100000 nM | > 100 µM | > 100000 nM | > 100 µM | > 100000 nM | > 100 µM | > 100000 nM | > 100 µM | > 100000 nM | > 100 µM | > 100000 nM | > 100 µM | > 100000 nM | > 100 µM | > 100000 nM | > 100 µM
Cc1cc(C)c2c(n1)sc1c(Nc3ccc(Cl)cc3)ncnc12 | < 10 nM | > 100 µM | 19.5 nM | 0.0898 µM | < 10 nM | > 100 µM | < 10 nM | > 100 µM | < 10 nM | – | 2390 nM | > 100 µM | < 10 nM | > 100 µM | < 10 nM | > 51.2 µM | > 100000 nM | > 100 µM | 20.9 nM | > 100 µM
C=C1C(=O)OC2CC(C)C(C(CC(C)=O)OC(C)=O)=CCC12 (stereo unspecified) | – | > 45 µM | – | 32.2 µM | – | 30.1 µM | – | 20.4 µM | – | 9.65 µM | – | 20.3 µM | – | > 76.2 µM | – | 22.4 µM | – | 31.1 µM | – | 62 µM
Nc1nn2cc(F)cnc2c1C(=O)Nc1cncc(F)c1N1CCC(C(=O)N2CCN(C3COC3)CC2)CC1 | 749 nM | > 48.5 µM | 110 nM | 0.778 µM | 469 nM | > 100 µM | 71.2 nM | 0.762 µM | 277 nM | > 100 µM | 854 nM | 26 µM | 266 nM | > 100 µM | 250 nM | – | 888 nM | > 69.9 µM | 238 nM | 1.86 µM

— PubChem BioAssay (NCI)
